In patent publication US20090105562A1, “SYSTEM AND METHODS FOR SCREENING OR ANALYZING TARGETS” (TAIPEI VETERANS GENERAL HOSPITAL, priority 2007, published 2009):

Tests used:
Format in all cases: cell-based, rat
NSCs = test: Triple-staining immunofluorescent assay of NSC differentiation into serotoninergic neurons
Experimental: All animals used were treated in accordance with the Animal Care and Use Committee guideline at Taipei Veterans General Hospital. The protocol of the present study was also approved by the committee. Adult Sprague-Dawley (SD) rats (8 weeks old, 250 g) were anesthetized with intraperitoneal phenobarbital (Sigma, USA), and the location of their brains was mapped. Then, the brain was surgically separated from the hippocampus region. In brief, tissues from the hippocampus of adult rats were dissociated and incubated in Hank's balanced salt solution (HBSS) containing collagenase (78 units/ml) and hyaluronidase (38 units/ml) for 10 minutes at 37° C. The tissues were then mechanically dissected and placed in a trypsin solution (1.33 mg/ml) at 37° C. for another 10 minutes. Dissociated cells were then centrifuged at […] for 5 minutes. Then the enzyme solution was removed and replaced with serum-free culture media composed of Dulbecco Modified Eagle Medium (DMEM) and F-12 nutrient mixture (1:1) including insulin (25 μg/mL), transferrin (100 μg/mL), progesterone (20 nM), putrescine (60 μM), sodium selenite (30 nM), human recombinant epidermal growth factor (EGF) 20 ng/mL, and fibroblast growth factor-basic (bFGF) (20 ng/mL) (R&D Systems, Minneapolis, Minn., USA). Viable cells were counted by trypan blue exclusion and plated as 5000 cells/200 μL per well in 96-well plates (Corning Inc, Acton, Mass., USA) with no substrate pretreatment. The IM was purchased from Sigma Chem. Co., St Louis, Mo., USA. The 0.1% dimethyl sulfoxide (DMSO) (Sigma Chem. Co., St Louis, Mo., USA) was used as a vehicle control in all procedures and studies. For differentiation protocol, the neurosphere NSCs were plated on poly-L-ornithine-coated (15 μg/mL) glass coverslips in individual wells of 24-well plates (1.0 mL/well) in DMEM/F-12 medium containing 2% fetal calf serum (FCS) (Gibcol-BRL, Gaitherburg, Md., USA) and withdrawing EGF and bFGF At the time of NSCs seeding, vehicle control or IM treatment was concurrently added.
An avidin-biotin complex method was used for the immunohistochemical staining in the differentiated NSCs. Following washes with the 3% hydrogen peroxide, sodium azide and antigens were retrieved using a microwave. […] Immunoreactive signals were detected with a mixture of biotinylated rabbit anti-mouse IgG and Fluoresave (Calbiochem, La Jolla, Calif., USA) under confocal microscopy (Olympus, FV300). Each individual sample was analyzed in triplicate. […] The percentage of TUNEL-positive cells was measured by the average of 6 different areas as compared to the total cell number in the same section slide (under a×200 power field of a light microscope).

LPS-treated NSCs [1] = test: LPS-induced apoptotic activity in NSCs, caspase 8 and 3 ELISA
Experimental: (§1) IM was purchased from Sigma Chem. Co., St Louis, Mo., USA. NSCs were seeded on 24-well plates at a density of 2×10^4 cells/well in medium, followed by methyl thiazol tetrazolium assay (MTT assay) (Sigma-Aldrich Co., St Louis, Mo., USA) for cell viability. NSCs were incubated with 0.25 mg/ml MTT for 4 hours at 37° C. and the reaction was terminated by the addition of 100% isopropanol. The amount of MTT fromazon product was determined using a microplate reader and the absorbance was measured at 560 nm (SpectraMax 250, Molecular Devices, Sunnyvale, Calif., USA). NSCs were exposed to 0, 1, 2, 5, 10, 20, 30, 40, 50, 100, 200, and 300 μM of IM for 1, 3, 5, and 7 days, respectively. The activities of caspases 8 and 3 (Medical and Biological Laboratories Co., Ltd., Nagoya, Japan), and the concentration of IL-6, IL-1 and TNF-α (Pharmingen, San Diego, Calif., USA) were determined by ELISA kits and quantified by reading at 490 nm (MRX; Dynatech Laboratories, Chantilly, Va., USA). Each individual sample was analyzed in triplicate.
(§2) Double-stranded, short interfering RNA (siRNA) of BDNF and Bcl-2 were chemically synthesized by Ambion Inc., Austin, Tex., USA). The sense and antisense sequences of BDNF were designed as follows: Sense: […]tt; Antisense: AGCTTAAAAAGAG CTGtt, starting from nucleotide 137 of the Bcl-2 sequence (accession number L14680). The sense and antisense sequences of Bcl-2 were designed as follows: Sense: GCGCUGGAUAUAACUUCUUtt; Antisense: AAGAAGUUAUAUC CAGCGCtt, starting from nucleotide 137 of the Bcl-2 sequence (accession number L14680). In this test, the siRNA control used was siRNA-Cy3 (QIAGEN; sense sequence: UUCUCCGAACGUGU CACGUdTdT-3′-Cy3 and the complement 5′-ACGUGACACGUUCGGAGAAdTdT-3′-Cy3) as an irrelevant control. The transfection of siRNA was performed using Lipofectamine 2000 (Invitrogen, Carlsbad, Calif., USA) according to the manufacturer's instructions. In brief, cells were harvested with 0.25% trypsin, 1 mM ethylenediaminetetraacetic acid (EDTA) in phosphate buffered saline (PBS) without Ca^2+ and Mg^2+, and plated in six-well plates at 10^5 per cm^2. Then 3.5 μl siRNA (100 μM solution) was mixed with 125 μl serum-free culture medium for 5 minutes at room temperature. During this incubation period, 5 μl of Lipofectamine 2000 was diluted in 125 μl serum-free culture medium. These two mixtures were combined, mixed gently, and incubated for 20 minutes at room temperature for complex formation. This 250 μl of siRNA-Lipofectamine mixture was then added into the cells in a final volume of 2.5 ml per well. The transfected cells were cultured and fed daily with fresh medium until they were assayed.

LPS-treated NSCs [2] = test: TUNEL assay of LPS-induced apoptosis in NSCs; settings: IM treatment vs without IM
Experimental: An avidin-biotin complex method was used for the immunohistochemical staining in the differentiated NSCs. Following washes with the 3% hydrogen peroxide, sodium azide and antigens were retrieved using a microwave. Each slide was then treated with antibodies for Bcl-2 (Upstate Biotechnology, Waltham, Mass., USA), Nestin (Chemicon, Temecula, Calif., USA), 4′, 6-diamidino-2-phenylindole (DAPI; Chemicon, Temecula, Calif., USA) and MAP2 (Chemicon, Temecula, Calif., USA). Immunoreactive signals were detected with a mixture of biotinylated rabbit anti-mouse IgG and Fluoresave (Calbiochem, La Jolla, Calif., USA) under confocal microscopy (Olympus, FV300). Each individual sample was analyzed in triplicate. Furthermore, apoptotic cells were identified by the TUNEL method (In Situ Cell Death Detection Kit, POD, Roche Boehringer Mannheim Corp., IN, USA) as described in Chiou et al., J. Immunol. 167, 4098-4103, 2001. Briefly, the cells with cover slips were washed with 1× phosphate buffered saline (PBS), fixed with 4% of paraformaldehyde for 10 minutes, permeabilized with 0.1% of triton X-100 for 5 mins, and incubated with the TUNEL reagent provided for 1 hour. […] The percentage of TUNEL-positive cells was measured by the average of 6 different areas as compared to the total cell number in the same section slide (under a×200 power field of a light microscope).

LPS-treated NSCs [3] = test: Cell survival rate of LPS-treated NSCs
Experimental: as §1
as §2, with “Then 3.5 μl siRNA (100 μM solution) was mixed with 125 μl serum-free culture medium for 5 minutes at room temperature. During this incubation period, 5 μl of Lipofectamine 2000 was diluted in 125 μl serum-free culture medium. These two mixtures were combined, mixed gently, and incubated for 20 minutes at room temperature for complex formation. This 250 μl of siRNA-Lipofectamine mixture was then added into the cells in a final volume of 2.5 ml per well. The transfected cells were cultured and fed daily with fresh medium until they were assayed.” left out

[4] = Day 7 culture of IM-treated vs non IM-treated NSCs, p<0.05
[5] = LPS (100 ng/ml) exposure, Day 7 IM-treated vs without IM, p<0.05
[6] = agent added, Day 7 culture of IM-treated NSCs

apoptotic activity of caspase 3 (LPS-treated NSCs [1]; [5]) | apoptotic activity of caspase 8 (LPS-treated NSCs [1]; [5]) | Structure (SMILES) | percentage of MAP-2-positive cells (NSCs; [4]) | percentage of serotonin (5-HT)-positive cells (NSCs; [4]) | LPS-induced apoptosis in NSCs (TUNEL assay) (LPS-treated NSCs [2]) | cell survival rate in LPS-treated NSCs (LPS-treated NSCs [3]; vs only LPS-treated NSCs, LPS 100 ng/ml) | percentage of MAP-2-positive cells in IM-treated NSCs (NSCs; [6]) | percentage of serotonin (5-HT)-positive cells in IM-treated NSCs (NSCs; [6]) | apoptotic activities (caspase 8, caspase 3 and TUNEL assays) in LPS- and IM-treated NSCs (LPS-treated NSCs [1]; agent added to LPS- and IM-treated NSCs, U0126 40 μM) | cell viability in LPS-treated NSCs with IM (LPS-treated NSCs [3]; after added treatment with the agent)
significantly decreased | significantly decreased | CN(C)CCCN1c2ccccc2CCc2ccccc21 [IM, imipramine] | significantly increased | significantly increased | protected against LPS-induced apoptosis | significantly increases | – | – | – | –
– | – | N#CC(=C(/N)Sc1ccccc1N)/C(C#N)=C(\N)Sc1ccccc1N [U0126] | – | – | – | – | significantly decrease | significantly decrease | significantly enhanced | dramatically decreased
